Assay results reported in PMC10108353, “Design and Pharmacological Characterization of α4β1 Integrin Cyclopeptide Agonists: Computational Investigation of Ligand Determinants for Agonism versus Antagonism” (Journal of Medicinal Chemistry, 2023).
Like-named read-outs stand apart in the source and are kept apart here. Starred links: 1 amine or outer side, 2 acyl side, 3 side chain; linkers in the order of their positions; H or OH if unused. Positions of bridges follow the written chain, without caps; N, C: chain ends. Non-standard residues stand in square brackets, D forms with d. Residues, ends and D or L forms follow the SMILES beside them. Groups on a side chain read outwards from the residue. *: point of attachment. dPhe(4-NH2) = Nc1ccc(C[C@@H](N)C(=O)O)cc1; Phe(4-NH2) = Nc1ccc(C[C@H](N)C(=O)O)cc1; NH(2-Me-phenyl) = Cc1ccccc1N*; Phg = N[C@H](C(=O)O)c1ccccc1; d(β3hA) = C[C@@H](N)CC(=O)O; CO = O=C([*:1])[*:2]; NHPr = CCCN*

How the values were obtained:
[1] = amide bond, 16-membered ring, HBTU/HOBt/DIPEA, DMF, 25.0 °C
[2] = biological target: α4β1 integrin (Homo sapiens, UniProt P05556+P13612); assay: Jurkat E6.1 cell adhesion to FN; settings: for agonist or antagonist behaviour, FN/Jurkat E6.1 α4β1: agonist = adhesion index >1, antagonist = adhesion index <1
Chain of α4β1 integrin (P13612 34-1032): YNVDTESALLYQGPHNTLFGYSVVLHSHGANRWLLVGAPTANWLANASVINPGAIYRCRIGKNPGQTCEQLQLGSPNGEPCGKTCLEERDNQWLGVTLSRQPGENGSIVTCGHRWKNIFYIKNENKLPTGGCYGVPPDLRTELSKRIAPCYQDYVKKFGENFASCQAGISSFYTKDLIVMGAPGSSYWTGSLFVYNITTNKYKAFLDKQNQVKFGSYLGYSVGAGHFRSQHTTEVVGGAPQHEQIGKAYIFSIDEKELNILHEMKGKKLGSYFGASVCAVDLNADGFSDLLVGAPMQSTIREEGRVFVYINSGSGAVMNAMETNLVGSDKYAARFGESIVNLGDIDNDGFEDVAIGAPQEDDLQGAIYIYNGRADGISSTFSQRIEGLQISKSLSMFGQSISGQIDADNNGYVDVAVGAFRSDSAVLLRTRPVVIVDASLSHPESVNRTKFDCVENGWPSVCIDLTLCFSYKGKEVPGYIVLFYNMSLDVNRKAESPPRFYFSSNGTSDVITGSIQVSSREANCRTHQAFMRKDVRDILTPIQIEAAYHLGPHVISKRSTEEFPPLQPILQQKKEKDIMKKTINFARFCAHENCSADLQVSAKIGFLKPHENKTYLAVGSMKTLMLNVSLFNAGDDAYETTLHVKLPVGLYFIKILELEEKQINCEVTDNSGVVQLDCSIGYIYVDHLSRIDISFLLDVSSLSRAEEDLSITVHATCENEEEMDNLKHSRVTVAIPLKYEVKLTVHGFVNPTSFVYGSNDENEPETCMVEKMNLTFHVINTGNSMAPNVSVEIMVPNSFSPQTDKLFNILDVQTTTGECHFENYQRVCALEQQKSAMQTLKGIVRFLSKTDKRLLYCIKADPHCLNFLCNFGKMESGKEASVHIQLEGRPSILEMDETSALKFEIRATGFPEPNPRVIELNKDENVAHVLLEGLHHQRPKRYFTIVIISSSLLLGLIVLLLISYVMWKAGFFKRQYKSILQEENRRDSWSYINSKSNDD
Chain of α4β1 integrin (P05556 21-798): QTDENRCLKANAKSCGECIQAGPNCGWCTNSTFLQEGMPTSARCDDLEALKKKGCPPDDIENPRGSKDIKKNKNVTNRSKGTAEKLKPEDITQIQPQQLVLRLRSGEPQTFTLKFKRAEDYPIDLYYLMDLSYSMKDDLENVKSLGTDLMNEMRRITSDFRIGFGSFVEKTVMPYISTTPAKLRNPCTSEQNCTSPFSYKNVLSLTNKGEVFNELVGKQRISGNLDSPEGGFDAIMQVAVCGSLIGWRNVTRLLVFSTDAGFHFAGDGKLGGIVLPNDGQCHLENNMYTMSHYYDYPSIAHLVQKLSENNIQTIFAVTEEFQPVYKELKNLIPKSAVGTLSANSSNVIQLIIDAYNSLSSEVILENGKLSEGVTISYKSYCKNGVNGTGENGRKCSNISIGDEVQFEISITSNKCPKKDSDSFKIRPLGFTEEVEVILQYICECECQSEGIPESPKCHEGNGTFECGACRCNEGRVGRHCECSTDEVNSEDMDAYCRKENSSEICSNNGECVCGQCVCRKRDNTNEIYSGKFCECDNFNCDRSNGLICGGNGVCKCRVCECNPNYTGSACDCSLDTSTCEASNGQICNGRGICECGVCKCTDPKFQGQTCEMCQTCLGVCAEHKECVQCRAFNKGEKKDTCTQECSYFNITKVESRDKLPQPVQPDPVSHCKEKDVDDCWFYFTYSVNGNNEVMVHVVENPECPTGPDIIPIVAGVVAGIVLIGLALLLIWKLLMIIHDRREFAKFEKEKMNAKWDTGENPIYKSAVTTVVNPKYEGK
Procedure: Cells were seeded in 96-well plates coated with the specific natural human recombinant ligands (Table 1) and allowed to adhere in the presence of increasing concentrations (10^–10 to 10^–4 M) of the synthesized CPPs before the determination of the number of adherent cells (as described in Experimental Section).
For adhesion assays on Jurkat E6.1, RPMI8866, or HL60 cells, black 96-well plates were coated overnight at 4 °C with VCAM-1 or ICAM-1 or MAdCAM-1 (5 μg/mL) or Fg (10 μg/mL). The cells were counted, stained with CellTracker green CMFDA (12.5 μM, 30 min at 37 °C, Life Technologies), and after three washes, were preincubated with increasing concentrations of new CPP (10^–10 to 10^–4 M) or with the vehicle (methanol) for 30 min at 37 °C. Then cells were plated (500 000/well) on coated wells and incubated for 30 min at 37 °C. After three washes, adhered cells were lysed with 0.5% Triton X-100 in PBS (30 min at 4 °C) and fluorescence was measured (Ex485 nm/Em535 nm) in an EnSpire Multimode Plate Reader (PerkinElmer, Waltham, MA). For adhesion assays mediated by α5β1 integrin, 96-well plates were coated by passive adsorption with FN (10 μg/mL) overnight at 4 °C. K562 cells were counted and preincubated with various concentrations of the peptides or with the vehicle (methanol) for 30 min at RT. Afterward, the cells were plated (50 000 cells/well) and incubated at RT for 1 h. The wells were then washed with 1% BSA in PBS (phosphate-buffered saline) to take off nonadherent cells, and 50 μL of hexosaminidase substrate was added; after addition of 100 μL of stopping solution, the plates were read at 405 nm. In both types of adhesion assay, the number of adherent cells was determined by comparison with a standard curve made in the same plate. Experiments were carried out in quadruplicate and repeated at least three times.
Jurkat E6.1 (expressing α4β1 and αLβ2 integrin), K562 (expressing α5β1 integrin) and HL60 (expressing αMβ2 integrin) cell lines were purchased from ATCC (Rockville, MD, USA); these cells were routinely cultured in RPMI-1640 (Life Technologies) supplemented with glutamine and 10% FBS.
Cells were grown at 37 °C under 5% CO2 humidified atmosphere.

`Cc1ccccc1NC(=O)Nc1ccc(C[C@@H]2NC(=O)C[C@H](C(=O)OCc3ccccc3)NC(=O)[C@H](C(C)C)NC(=O)[C@H](CC(=O)OCc3ccccc3)NC(=O)[C@H](CC(C)C)NC2=O)cc1` [H-Phu-Leu-Asp(OBn)-Val-disoAsp(OBn)-OH] showed a ring closure, yield after HPLC ([1]; from H-Phu-Leu-Asp(OBn)-Val-disoAsp(OBn)-OH) of 19%.
`Cc1ccccc1NC(=O)Nc1ccc(C[C@H]2NC(=O)C[C@@H](C(=O)OCc3ccccc3)NC(=O)[C@H](c3ccccc3)NC(=O)[C@H](CC(=O)OCc3ccccc3)NC(=O)[C@H](CC(C)C)NC2=O)cc1` [H-dPhu-Leu-Asp(OBn)-Phg-isoAsp(OBn)-OH?] gave a ring closure, yield after HPLC ([1]; from H-dPhu-Leu-Asp(OBn)-Phg-isoAsp(OBn)-OH?) of 43%.
`Cc1ccccc1NC(=O)Nc1ccc(C[C@@H]2NC(=O)C[C@@H](C(=O)OCc3ccccc3)NC(=O)[C@H](C(C)C)NC(=O)[C@H](C)NC(=O)[C@H](Cc3ccccc3)NC2=O)cc1` [H-Phu-Phe-Ala-Val-isoAsp(OBn)-OH] showed a ring closure, yield after HPLC ([1]; from H-Phu-Phe-Ala-Val-isoAsp(OBn)-OH) of 48%.
`Cc1ccccc1NC(=O)Nc1ccc(C[C@H]2NC(=O)C[C@@H](C)NC(=O)[C@H](C(C)C)NC(=O)[C@H](CC(=O)OCc3ccccc3)NC(=O)[C@H](CC(C)C)NC2=O)cc1` [H-dPhu-Leu-Asp(OBn)-Val-(R)-β3homoAla-OH] showed a ring closure, yield after HPLC ([1]; from H-dPhu-Leu-Asp(OBn)-Val-(R)-β3homoAla-OH) of 33%.
For `Cc1ccccc1NC(=O)Nc1ccc(C[C@@H]2NC(=O)C[C@@H](C(=O)OCc3ccccc3)NC(=O)[C@H](C(C)C)NC(=O)[C@H](CC(=O)OCc3ccccc3)NC(=O)[C@H](Cc3ccccc3)NC2=O)cc1` [H-Phu-Phe-Asp(OBn)-Val-isoAsp(OBn)-OH], the ring closure, yield after HPLC ([1]; from H-Phu-Phe-Asp(OBn)-Val-isoAsp(OBn)-OH) was 25%.
Compound `Cc1ccccc1NC(=O)Nc1ccc(C[C@H]2NC(=O)C[C@@H](C(=O)O)NC(=O)[C@H](c3ccccc3)NC(=O)[C@H](CC(=O)O)NC(=O)[C@H](CC(C)C)NC2=O)cc1` [compound 16, c[(R)-Phu-Leu-Asp-Phg-(S)-isoAsp]] ([dPhe(4-NH2)]([CO-NH(2-Me-phenyl)])LD[Phg]D-OH; lactam N-5) has an IC50 [2] greater than 5 µM.
`Cc1ccccc1NC(=O)Nc1ccc(C[C@@H]2NC(=O)C[C@@H](C)NC(=O)[C@H](C(C)C)NC(=O)[C@H](CC(=O)OCc3ccccc3)NC(=O)[C@H](CC(C)C)NC2=O)cc1` [H-Phu-Leu-Asp(OBn)-Val-(R)-β3homoAla-OH] showed a ring closure, yield after HPLC ([1]; from H-Phu-Leu-Asp(OBn)-Val-(R)-β3homoAla-OH) of 50%.
`Cc1ccccc1NC(=O)Nc1ccc(C[C@@H]2NC(=O)C[C@@H](C(=O)OCc3ccccc3)NC(=O)[C@H](C(C)C)NC(=O)[C@H](C)NC(=O)[C@H](CC(C)C)NC2=O)cc1` [H-Phu-Leu-Ala-Val-isoAsp(OBn)-OH] gave a ring closure, yield after HPLC ([1]; from H-Phu-Leu-Ala-Val-isoAsp(OBn)-OH) of 37%.
For `Cc1ccccc1NC(=O)Nc1ccc(C[C@H]2NC(=O)C[C@@H](C(=O)O)NC(=O)[C@H](C(C)C)NC(=O)[C@H](C)NC(=O)[C@H](CC(C)C)NC2=O)cc1` [12c, c[(R)-Phu-Leu-Ala-Val-(S)-isoAsp]] ([dPhe(4-NH2)]([CO-NH(2-Me-phenyl)])LAVD-OH; lactam N-5 (inferred)), the “agonist or antagonist behaviour, FN/Jurkat E6.1 α4β1” value [2] was “agonist”.
With `Cc1ccccc1NC(=O)Nc1ccc(C[C@@H]2NC(=O)C[C@@H](C(=O)OCc3ccccc3)NC(=O)[C@H](C(C)C)NC(=O)[C@H](CC(=O)OCc3ccccc3)NC(=O)[C@H](CC(C)C)NC2=O)cc1` [H-Phu-Leu-Asp(OBn)-Val-isoAsp(OBn)-OH] the ring closure, yield after HPLC ([1]; from H-Phu-Leu-Asp(OBn)-Val-isoAsp(OBn)-OH) was 28%.
Work on `Cc1ccccc1NC(=O)Nc1ccc(C[C@@H]2NC(=O)C[C@@H](C(=O)OCc3ccccc3)NC(=O)[C@H](C(C)C)NC(=O)[C@H](CC(=O)OCc3ccccc3)NC(=O)[C@H](CC(C)C)NC2=O)cc1` [H-isoAsp(OBn)-Phu-Leu-Asp(OBn)-Val-OH] yielded a ring closure, yield after HPLC ([1]; from H-isoAsp(OBn)-Phu-Leu-Asp(OBn)-Val-OH) of 0%.
`Cc1ccccc1NC(=O)Nc1ccc(C[C@H]2NC(=O)C[C@H](C(=O)OCc3ccccc3)NC(=O)[C@H](C(C)C)NC(=O)[C@H](CC(=O)OCc3ccccc3)NC(=O)[C@H](CC(C)C)NC2=O)cc1` [H-dPhu-Leu-Asp(OBn)-Val-disoAsp(OBn)-OH] showed a ring closure, yield after HPLC ([1]; from H-dPhu-Leu-Asp(OBn)-Val-disoAsp(OBn)-OH) of 34%.
With `Cc1ccccc1NC(=O)Nc1ccc(C[C@H]2NC(=O)C[C@@H](C(=O)OCc3ccccc3)NC(=O)[C@H](C(C)C)NC(=O)[C@H](CC(=O)OCc3ccccc3)NC(=O)[C@H](CC(C)C)NC2=O)cc1` [H-dPhu-Leu-Asp(OBn)-Val-isoAsp(OBn)-OH] the ring closure, yield after HPLC ([1]; from H-dPhu-Leu-Asp(OBn)-Val-isoAsp(OBn)-OH) was 29%.
Compound `Cc1ccccc1NC(=O)Nc1ccc(C[C@@H]2NC(=O)C[C@@H](C(=O)OCc3ccccc3)NC(=O)[C@H](C(C)C)NC(=O)[C@H](CC(=O)OCc3ccccc3)NC(=O)[C@H](CC(C)C)NC2=O)cc1` [H-Asp(OBn)-Val-isoAsp(OBn)-Phu-Leu-OH?] has a ring closure, yield after HPLC ([1]; from H-Asp(OBn)-Val-isoAsp(OBn)-Phu-Leu-OH?) of 0%.
For `CCCNC(=O)[C@@H]1CC(=O)N[C@@H](Cc2ccc(NC(=O)Nc3ccccc3C)cc2)C(=O)N[C@@H](CC(C)C)C(=O)N[C@@H](CC(=O)O)C(=O)N[C@@H](C(C)C)C(=O)N1` [compound 13, c[(S)-PhU-Leu-Asp-Val-(S)-isoAsp(nPr)]] ([Phe(4-NH2)]([CO-NH(2-Me-phenyl)])LDVD-NHPr; lactam N-5 (inferred)), the IC50 [2] was greater than 5 µM and the “agonist or antagonist behaviour, FN/Jurkat E6.1 α4β1” value [2] was “complete loss of activity”.
With `Cc1ccccc1NC(=O)Nc1ccc(C[C@@H]2NC(=O)C[C@@H](C(=O)O)NC(=O)[C@H](C(C)C)NC(=O)[C@H](CC(=O)O)NC(=O)[C@H](Cc3ccccc3)NC2=O)cc1` [compound 14, c[(S)-Phu-Phe-Asp-Val-(S)-isoAsp]] ([Phe(4-NH2)]([CO-NH(2-Me-phenyl)])FDVD-OH; lactam N-5) the IC50 [2] was greater than 5 µM.
Work on `CCCNC(=O)[C@@H]1CC(=O)N[C@@H](Cc2ccc(NC(=O)Nc3ccccc3C)cc2)C(=O)N[C@@H](CC(C)C)C(=O)N[C@@H](CC(=O)OCc2ccccc2)C(=O)N[C@@H](C(C)C)C(=O)N1` [H-Phu-Leu-Asp(OBn)-Val-isoAsp(NHPr)-OH?] yielded a ring closure, yield after HPLC ([1]; from H-Phu-Leu-Asp(OBn)-Val-isoAsp(NHPr)-OH?) of 27%.
For `Cc1ccccc1NC(=O)Nc1ccc(C[C@@H]2NC(=O)C[C@@H](C)NC(=O)[C@H](C(C)C)NC(=O)[C@H](CC(=O)O)NC(=O)[C@H](CC(C)C)NC2=O)cc1` [11a, c[(S)-Phu-Leu-Asp-Val-(R)-β^3homoAla]] (cyclo([Phe(4-NH2)]([CO-NH(2-Me-phenyl)])LDV[d(β3hA)])), the IC50 [2] was greater than 5 µM.
`Cc1ccccc1NC(=O)Nc1ccc(C[C@H]2NC(=O)C[C@@H](C(=O)OCc3ccccc3)NC(=O)[C@H](C(C)C)NC(=O)[C@H](C)NC(=O)[C@H](CC(C)C)NC2=O)cc1` [H-dPhu-Leu-Ala-Val-isoAsp(OBn)-OH] showed a ring closure, yield after HPLC ([1]; from H-dPhu-Leu-Ala-Val-isoAsp(OBn)-OH) of 15%.
